Test results reported in patent US8907126B2, “Tyrosine derivative and method for producing tyrosine derivative” (NARD Institute, Ltd., priority 2012, dated 2014).

Biological target: T1, human recombinant melatonin MT1 receptors (Homo sapiens, UniProt P48039)
T1 construct: expressed in transfected cells; host or cells: CHO-K1 cells (membranes)
Test: Inhibitory activity test against melatonin MT1 receptor ([35S]GTPγS binding, SPA)
Assay type: biochemical
Conditions: membranes of CHO-K1 cells expressing MT1, 0.1 nM 2-iodomelatonin, 0.3 nM [35S]GTPγS, HEPES buffer pH 7.4; test concentration not given
Procedure: An inhibitory activity of the tyrosine derivative of the present invention against a melatonin MT1 receptor was evaluated. Specifically, human recombinant melatonin MT1 receptors expressed in CHO-K1 cells were used in modified HEPES buffer pH 7.4. The tyrosine derivative obtained in the above Example 8 was preincubated with 0.025 mg/mL of membranes of the cell and 1 μM of guanosine diphosphate in modified HEPES buffer (pH 7.4) at 25° C. for 20 minutes, then SPA, i.e. Scintillation proximity assay, beads were added thereto. The mixture was preincubated at 30° C. for 60 minutes. The reaction was initiated by adding 0.3 nM of [^35S]GTPγS and incubating the mixture for 30 minutes, and the test compound-induced inhibition of 0.1 nM 2-iodomelatonin-induced increase of [^35S]GTPγS binding response was measured.

T1 sequence (P48039 whole entry): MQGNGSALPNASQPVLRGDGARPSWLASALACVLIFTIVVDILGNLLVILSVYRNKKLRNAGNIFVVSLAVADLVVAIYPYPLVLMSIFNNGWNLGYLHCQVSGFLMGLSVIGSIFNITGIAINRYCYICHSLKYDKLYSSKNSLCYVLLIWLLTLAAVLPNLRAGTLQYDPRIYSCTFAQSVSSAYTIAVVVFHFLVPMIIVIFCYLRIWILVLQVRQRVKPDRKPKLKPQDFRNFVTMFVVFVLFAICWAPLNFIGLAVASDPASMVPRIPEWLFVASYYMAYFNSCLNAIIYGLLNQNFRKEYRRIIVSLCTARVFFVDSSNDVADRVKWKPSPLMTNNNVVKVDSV

- inhibition of 2-iodomelatonin-induced increase of [35S]GTPγS binding response: 33%
Compound: CC(C)(C)OC(=O)NC(Cc1cc(OCCCl)ccc1I)C(=O)OC(C)(C)C (stereo not shown) [Example 8]
